Read-outs that look alike come from different tables or passages of the source.

As usually defined, the ED50 is the dose that gives a 50% effect, or the effect in half of the subjects. A word on the LD50: it is the dose expected to kill half of the subjects tested. Lower therefore signals a more toxic substance.

The nature of data set [1]: anticonvulsant activity, standard maximal electroshock test (MES). The class given is in vivo, mice. As to conditions: Mus musculus, po, read-out: ED50, MES. On the procedure: The anticonvulsant activity of certain compounds of the present invention was determined by a standard maximal electroshock test, that described by L. A. Woodbury and V. D. Davenport, Arch. Int. Pharmacodyn.: 1952, 92, 97.

A short description of another data set: LD50 in mice, p.o. The following applies: mouse, in vivo, po, dose for which 50% of the animals survive 10 days after administration. On the procedure: (§1) The LD50's (expressed in mg/kg, p.o.) of 3,5-diamino-6-(2,3-dichlorophenyl)-1,2,4-triazine and 3,5-diamino-6-(2,5-dichlorophenyl)-1,2,4,-triazine were determined in mice and rats. The LD50 described is the dose for which 50% of the animals survive 10 days after administration of the compound.

A short description of the next data set: LD50 in rats, p.o. As to conditions: rat, in vivo, po, dose for which 50% of the animals survive 10 days after administration. As for the experimental part:
as §1

For the next data set, the system named is Plasmodium berghei. The following applies: Plasmodium berghei in mice; Rees et al, J. Med. Chem., 1972 15, 859; cited from earlier work.
The conditions of data set [2]: cited from earlier work; for toxicity: J. Med. Chem., 1972 15, 859.
The conditions of data set [3]: Rosenberg and Bottiroli, Proc. Soc. Exp. Biol. 1964; cited from earlier work.
The mark [4] stands for this setting: mice, p.o., maximal electroshock, Table 3.
[5] abbreviates: mice, p.o., maximal electroshock, Table 4 (naphthyl compounds).

Take `Nc1nnc(-c2cc(Cl)cc(Cl)c2Cl)c(N)n1` [2,3,5-Cl3 NH2, 3,5-diamino-6-(2,3,5-trichlorophenyl)-1,2,4-triazine]: in data set [1] (setting [4]), the median effective dose (ED50) stood at 0.65 mg/kg. Still for that read-out and setting: the same measure for `CN(C)C=Nc1nc(N)nnc1-c1cccc(Cl)c1Cl.O=C(O)C(=O)O` [2,3-Cl2 NCHNMe2, 3-amino-6-(2,3-dichlorophenyl)-5-dimethylaminomethyleneamino-1,2,4-triazine oxalate]: 5 mg/kg.

Regarding `Nc1nnc(-c2cccc(Cl)c2Cl)c(N)n1` [2,3-Cl2 NH2, 3,5-diamino-6-(2,3-dichlorophenyl)-1,2,4-triazine], the median lethal dose (LD50) at 240 h in the data set “LD50 in mice, p.o.” was 250 mg/kg; in “LD50 in rats, p.o.” it was more than 640 mg/kg. The median effective dose (ED50) in data set [1] amounted to 2.4 mg/kg. On to `CC(=O)Nc1nc(N)nnc1-c1cccc(Cl)c1Cl` [2,3-Cl2 NHCOCH3, 5-acetamido-3-amino-6-(2,3-dichlorophenyl)-1,2,4-triazine], for which the ED50 in data set [1] (setting [4]) was found to be 5 mg/kg. Take `Nc1nnc(-c2ccc(Cl)cc2Cl)c(N)n1` [2,4-dichlorophenyl]: the antimalarial activity result with Plasmodium berghei is “only slight antimalarial activity”. Regarding `Nc1nnc(-c2cc(Cl)ccc2Cl)c(N)n1` [2,5-Cl2 NH2, 3,5-diamino-6-(2,5-dichlorophenyl)-1,2,4-triazine], the median lethal dose (LD50) at 240 h is 708 mg/kg in the data set “LD50 in mice, p.o.” and more than 640 mg/kg in “LD50 in rats, p.o.”. The ED50 in data set [1] (setting [4]) turned out to be 3.3 mg/kg. Turning to `Nc1nnc(-c2ccccc2Br)c(N)n1` [2-Br NH2, 3,5-diamino-6-(2-bromophenyl)-1,2,4-triazine], the ED50 in data set [1] (setting [4]) was found to be 8.5 mg/kg. The same measure, in the same setting: as for `Nc1nnc(-c2cc(Cl)ccc2Br)c(N)n1` [2-Br, 5-Cl NH2, 3,5-diamino-6-(2-5-chlorophenyl)-1,2,4-triazine], the figure is 4.6 mg/kg.

As for `Nc1nnc(-c2ccccc2C(F)(F)F)c(N)n1` [2-CF3 NH2, 3,5-diamino-6-(2-trifluoromethylphenyl)-1,2,4-triazine], the 50% effective dose (ED50) in data set [1] (setting [4]) was found to be 20 mg/kg. With `Nc1nnc(-c2ccc(Br)cc2Cl)c(N)n1` [2-Cl, 4-Br NH2, 3,5-diamino-6-(4-bromo-2-chlorophenyl)-1,2,4-triazine], the ED50 in data set [1] (setting [4]) came to 12.8 mg/kg. Consider `Nc1nnc(-c2cc(Br)ccc2Cl)c(N)n1` [2-Cl, 5-Br NH2, 3,5-diamino-6-(5-bromo-2-chlorophenyl)-1,2,4-triazine], for which, in data set [1] (setting [4]), the ED50 stood at 6 mg/kg.

`Nc1nnc(-c2c(F)cccc2Cl)c(N)n1` [2-Cl, 6-F NH2, 3,5-diamino-6-(2-chloro-6-fluorophenyl)-1,2,4-triazine]: the ED50 in data set [1] (setting [4]) is 12.2 mg/kg.

For `Nc1nnc(-c2ccccc2I)c(N)n1` [2-I NH2, 3,5-diamino-6-(2-iodophenyl)-1,2,4-triazine], the 50% effective dose (ED50) in data set [1] (setting [4]) turned out to be 11.8 mg/kg. Same read-out and setting: as for `Cc1ccccc1-c1nnc(N)nc1N` [2-Me NH2, 3,5-diamino-6-(2-methylphenyl)-1,2,4-triazine], the figure is 15 mg/kg.

For `Cc1ccc2ccccc2c1-c1nnc(N)nc1N` [2-Me, 3,5-diamino-6-(2-methyl-1-naphthyl)-1,2,4-triazine], the ED50 in data set [1] (setting [5]) was 16.5 mg/kg.

`Nc1nnc(-c2ccc(Cl)c(Cl)c2)c(N)n1` [3,4-dichlorophenyl]: in data set [2] (Rees et al), the toxicity result is given as “toxic at curative doses”. Besides, the therapeutic ratio entry in data set [2] (mouse, in vivo) was “low therapeutic ratio”. In the data set on Plasmodium berghei, the antimalarial activity entry is “active against the malaria organism Plasmodium berghei in mice”.

As to `Nc1nnc(-c2cc(Cl)cc3ccccc23)c(N)n1` [3-Cl, 3,5-diamino-6-(3-chloro-1-naphthyl)-1,2,4-triazine], in data set [1] (setting [5]), the ED50 amounted to 6.5 mg/kg. Regarding `Nc1nnc(-c2ccc(Cl)cc2)c(N)n1` [4-chlorophenyl], the toxicity result in data set [2] (Rees et al) was “toxic at curative doses”. The therapeutic ratio entry in data set [2] (malaria, Rees et al) is reported as “low therapeutic ratio”. The antimalarial activity entry with Plasmodium berghei is reported as “active against the malaria organism Plasmodium berghei in mice”. For `Nc1nnc(-c2ccc(C(F)(F)F)cc2)c(N)n1` [4-trifluoromethylphenyl], the toxicity entry in data set [2] (Rees et al) was “less toxic than the chlorophenyl compounds”. In addition, the antimalarial activity entry with Plasmodium berghei is given as “still being active against malaria”.

As for `Nc1nnc(-c2cccc3ccccc23)c(N)n1` [H, 3,5-diamino-6-(1-naphthyl)-1,2,4-triazine], the ED50 in data set [1] (setting [5]) came out at 2.9 mg/kg. As for `CCN(CCO)CCCC(C)Nc1ccnc2cc(Cl)ccc12` (stereo not drawn) [hydroxychloroquine], the anticonvulsant activity profile result in data set [3] is “favourable activity profile”.
